Measured values reported in patent US20250154686A1, “COMPOUND LIBRARY” (CHUGAI SEIYAKU KABUSHIKI KAISHA, priority 2021, published 2025).

Assays:
Human Bcl-2 protein = molecular target: T1, Human Bcl-2 protein (Homo sapiens, UniProt P10415); test: Evaluation of binding of compound to Bcl-2 by surface plasmon resonance (SPR)-2, Example 13; details: for Kd: Biacore T200, biotinylated Bcl-2 immobilized on Sensor Chip SA, 15° C., read-out: Equilibrium dissociation constant KD; for equilibrium dissociation constant KD compared with B2Q045-01 (KD=1.20 μM) or B2Q048-01 (KD=0.480 μM): Biacore T200, 15° C.
T1 construct: purchased Novus Biologicals
T1 sequence (P10415 whole entry): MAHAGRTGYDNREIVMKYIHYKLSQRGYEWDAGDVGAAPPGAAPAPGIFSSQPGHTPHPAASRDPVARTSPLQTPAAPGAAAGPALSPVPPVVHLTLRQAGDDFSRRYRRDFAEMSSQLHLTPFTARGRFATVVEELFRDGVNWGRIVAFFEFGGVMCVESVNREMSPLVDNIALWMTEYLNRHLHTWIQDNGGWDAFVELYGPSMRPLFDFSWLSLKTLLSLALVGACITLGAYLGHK
Description: A surface plasmon resonance method was used in order to analyze the binding affinity of the compounds synthesized in Example 12 for Bcl-2, which are shown in Table 13-1. The apparatus used was Biacore T200 (GE Healthcare Japan Corp.), and the running buffer used was HBS (10 mM HEPES-NaOH and 150 mM NaCl, pH 7.4) supplemented with 1 mM DTT, 3 mM EDTA, 0.01% Tween 20 and 4% DMSO. Human Bcl-2 protein (Novus Biologicals) was biotinylated using EZ-Link NHS-PEG4-Biotin (Thermo Fisher scientific Inc.) and immobilized on the surface of Sensor Chip SA (Cytiva). Then, compound solutions having a plurality of concentrations and the running buffer (blank) were added to the Bcl-2-immobilized surface to obtain the binding response of the compounds. Measurement was performed at 15° C.
The obtained sensorgrams were treated with Biacore T200 Evaluation Software, and the equilibrium dissociation constant KD of each compound for Bcl-2 was determined as shown in the following Table 13-2.

[1] = molecular target: T2, Bcl-2 protein (Recombinant Human Bcl-2 Protein) (Homo sapiens, UniProt P10415); test: AS-MS evaluation of binding of the mixture libraries of Examples 8 and 9 to Bcl-2, ASMS ratio (%), Example 11; details: for AS-MS(%) N1 / AS-MS(%) N2 / AS-MS(%) N3 / AS-MS(%) N4: ASMS ratio, mixtures obtained from Example 9, 10 uM Bcl-2 protein; for AS-MS(%) N1: replicate N1; for AS-MS(%) N2: replicate N2; for AS-MS(%) N3: replicate N3 (additional day); for AS-MS(%) N4: replicate N4 (additional day); for binding to Bcl-2 detected by AS-MS: positive controls added to the mixtures of Examples 8 and 9, final compound concentration 100 nM
T2 construct: purchased Novus Biologicals NBP2-34889
T2 sequence (P10415 whole entry): as above
Description: DMSO solutions (prepared into approximately 5 mM based on calculation from the average molecular weight of each mixture) of the mixtures of each Example shown in Table 11-1-1 were respectively dispensed to 8 wells of MICROPLATE, 96-WELL, PP, V-BOTTOM (Greiner Bio-One International GmbH, 651201). 400 nL each from the 8 wells of the mixtures obtained from Example 8 was dispensed into 3 designated wells while 200 nL each from the 8 wells of the mixtures obtained from Example 9 was dispensed into 3 designated wells, using LABCYTE ECHO® 555 acoustic dispensing system (Beckman Coulter, Inc.). 200 nL each of two types of 10 μM positive controls (B2Q045-01 and B2Q048-01) was dispensed to the mixtures obtained from Example 8. Likewise, 100 nL each of two types of 20 μM positive controls and 400 nL of a DMSO solution by backfill was dispensed to the mixtures obtained from Example 9. Further, Bcl-2 protein (Novus Biologicals, NBP2-34889, Recombinant Human Bcl-2 Protein, Lot E60145051) (19.2 μL) prepared at 5 µM (final protein concentration) for the mixtures obtained from Example 8 and 10 µM (final protein concentration) for the mixtures obtained from Example 9, in advance using a Tris-HCl buffer (25 mM Tris-HCl, pH 7.4, 150 mM NaCl, 0.025% Tween-20, and 1 mM DTT) was added to the well containing the dispensed 1000 compounds or 500 compounds (final compound concentration: 100 nM), and the plate was incubated at 23° C. for 1 hour in the dark. Subsequently, 200 μL of an assay buffer (25 mM Tris-HCl, pH 7.4, 150 mM NaCl, 0.025% Tween-20, and 1 mM DTT) was centrifuged three times at 2000×G at 4° C. for 2 minutes using 96-well MacroSpin column, P-2 Material (Harvard Bioscience, Inc., 74-5655) that had been allowed to swell to condition the 96-well MacroSpin column. Subsequently, 20 μL of the sample thus incubated was added to the 96-well MacroSpin column, P-2 Material after the completion of conditioning, and SEC treatment was performed by centrifugation at 2000×G for 2 minutes. 32 μL of a 1:1 mixed solution of acetonitrile and methanol (LC/MS grade, FUJIFILM Wako Pure Chemical Corp.) was added to a flow-through liquid from SEC, and the mixture was centrifuged at 1800×G at 4° C. for 5 minutes. The supernatant was used as analysis sample ASMS (A). By a similar operation, a sample prepared at 500 compounds/well or 1000 compounds/well and supplemented with only a Tris-HCl buffer containing no Bcl-2 protein was incubated under the same conditions as above, and the same organic solvent as above was added thereto without 96-well MacroSpin column treatment. A supernatant obtained by a centrifugation operation was used as STD (B). Next, by a similar operation, a sample prepared at 1000 compounds/well or 500 compounds/well and supplemented with only a Tris-HCl buffer containing no Bcl-2 protein was incubated under the same conditions as above and treated with 96-well MacroSpin column in the same manner as above, and the same organic solvent as above was added thereto. A supernatant obtained by a centrifugation operation was used as BK (C). These samples were measured by reverse-phase LC/MS.
Then, the samples A, B and C were analyzed for the 1000 compounds or 500 compounds using TraceFinder 5.1 (Thermo Fisher Scientific Inc.) and CHANCE Software (in-house), and an ASMS ratio (%) was calculated according to the following expression.
The mixtures obtained from Example 8 were tested at the number of data of 2 (N1 and N2) in order to ensure reproducibility. The mixtures obtained from Example 9 were tested at the total number of data 4 (N1,N2, N3, and N4) involving the number of data of 2/day (N1 and N2) and data obtained on additional days.

[2] = molecular target: T2, Bcl-2 protein (Recombinant Human Bcl-2 Protein); test: AS-MS evaluation of binding of the Example 4 mixture library (1200 compounds/well) to Bcl-2, ASMS ratio (%)
Method in brief: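 ASMS ratio (%) derived from reverse-phase LC/MS of three samples: Bcl-2 (20 μM) incubation after SEC, protein-free standard without SEC, and protein-free blank after SEC. Compounds were pooled at 1200/well, 20 nM each, incubated 1 h, 23 °C, dark, in Tris-HCl pH 7.4 buffer with Tween-20 and DTT.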

[3] = AS-MS, mixture of 1200 compounds/well, Bcl-2 protein, replicate n = 1
[4] = AS-MS, mixture of 1200 compounds/well, Bcl-2 protein, replicate n = 2
[5] = Example 4 mixture library, 1200 compounds/well, Bcl-2 protein, replicate n = 1, value belongs to the MS peak assignable to the compound
[6] = Example 4 mixture library, 1200 compounds/well, Bcl-2 protein, replicate n = 2, value belongs to the MS peak assignable to the compound

Row | Compound | Kd (Human Bcl-2 protein) [µM] | AS-MS(%) N1 [1] [%] | AS-MS(%) N2 [1] [%] | AS-MS(%) N3 [1] [%] | AS-MS(%) N4 [1] [%] | further results
1 | CC(C(=O)Nc1ccccc1)c1cc(O)cc(N2CCN(c3ccc(C(=O)NS(=O)(=O)c4ccc(NCCSc5ccccc5)c([N+](=O)[O-])c4)cc3)CC2)c1 (stereo not drawn) [2-2-d1E03-1-0417] | 7.91 | 34.2 | 33.3 | 44.4 | 38.0 | 
2 | CC(C(=O)Nc1ccc(F)cc1)c1cc(O)cc(N2CCN(c3ccc(C(=O)NS(=O)(=O)c4ccc(NCCSc5ccccc5)c([N+](=O)[O-])c4)cc3)CC2)c1 (stereo not drawn) [2-2-d1E03-1-0454] | 15.2 | 34.7 | 33.4 | 39.2 | 38.2 | 
3 | CC(C(=O)Nc1nc2ccccc2s1)c1cc(O)cc(N2CCN(c3ccc(C(=O)NS(=O)(=O)c4ccc(NCCSc5ccccc5)c([N+](=O)[O-])c4)cc3)CC2)c1 (stereo not drawn) [2-2-d1E03-1-0495] | 5.34 | 28.9 | 38.1 | 35.6 | 39.3 | 
4 | CC(C(=O)Nc1ccccc1)c1cc(O)cc(N2CCN(c3ccc(C(=O)NS(=O)(=O)c4ccc(N[C@H](CCN5CCOCC5)CSc5ccccc5)c([N+](=O)[O-])c4)cc3)CC2)c1 (stereo partly drawn) [2-2-d1E04-1-0417] | 0.582 | 70.3 | 77.8 | 72.8 | 71.8 | equilibrium dissociation constant KD compared with B2Q045-01 (KD=1.20 μM) or B2Q048-01 (KD=0.480 μM) (Human Bcl-2 protein): smaller equilibrium dissociation constant KD
5 | Cc1ccc(NC(=O)C(C)c2cc(O)cc(N3CCN(c4ccc(C(=O)NS(=O)(=O)c5ccc(N[C@H](CCN6CCOCC6)CSc6ccccc6)c([N+](=O)[O-])c5)cc4)CC3)c2)cc1 (stereo partly drawn) [2-2-d1E04-1-0446] | 0.775 | 57.8 | 68.3 | 60.9 | 58.1 | equilibrium dissociation constant KD compared with B2Q045-01 (KD=1.20 μM) or B2Q048-01 (KD=0.480 μM) (Human Bcl-2 protein): smaller equilibrium dissociation constant KD
6 | CCOc1cccc(-c2ccccc2CN2CCN(c3ccc(C(=O)NS(=O)(=O)c4ccc(NCCSc5ccccc5)c([N+](=O)[O-])c4)cc3)CC2)c1 [Compound B2Q045-01, 4-[4-[[2-(3-ethoxyphenyl)phenyl]methyl]piperazin-1-yl]-N-[3-nitro-4-(2-phenylsulfanylethylamino)phenyl]sulfonylbenzamide] |  |  |  |  |  | binding to Bcl-2 detected by AS-MS [1]: binding to Bcl-2 was detected
7 | CCOc1cncc(-c2ccccc2CN2CCN(c3ccc(C(=O)NS(=O)(=O)c4ccc(NCCSc5ccccc5)c([N+](=O)[O-])c4)cc3)CC2)c1 [Compound B2Q046-01, 4-[4-[[2-(5-ethoxypyridin-3-yl)phenyl]methyl]piperazin-1-yl]-N-[3-nitro-4-(2-phenylsulfanylethylamino)phenyl]sulfonylbenzamide] |  |  |  |  |  | binding to Bcl-2 detected by AS-MS [1]: binding to Bcl-2 was detected
8 | CCOc1cncc(-c2ccc(C(C)N3CCN(c4ccc(C(=O)NS(=O)(=O)c5ccc(NCCSc6ccccc6)c(C(F)(F)F)c5)cc4)CC3)c(F)c2)c1 (stereo not drawn) [Compound B2R100-01, 4-[4-[1-[4-(5-Ethoxypyridin-3-yl)-2-fluorophenyl]ethyl]piperazin-1-yl]-N-[4-(2-phenylsulfanylethylamino)-3-(trifluoromethyl)phenyl]sulfonylbenzamide] |  |  |  |  |  | ASMS ratio (%) n = 1 ([2]; AS-MS, Example 4 mixture library, Bcl-2, replicate n = 1): 0.6%; ASMS ratio (%) n = 2 ([2]; AS-MS, Example 4 mixture library, Bcl-2, replicate n = 2): 10.1%
9 | CCOc1cccc(C#Cc2cc(C(=O)N3CCN(c4ccc(C(=O)N(C)CC56CC7CC(CC(C7)C5)C6)nn4)CC3)cc(C(F)(F)F)c2)c1 [Compound B3A019-01, N-(1-Adamantylmethyl)-6-[4-[3-[2-(3-ethoxyphenyl)ethynyl]-5-(trifluoromethyl)benzoyl]piperazin-1-yl]-N-methylpyridazine-3-carboxamide] |  |  |  |  |  | ASMS ratio (%) n = 1 [2, 3]: 2.6%; ASMS ratio (%) n = 2 [2, 4]: −2.3%
10 | CCOc1cncc(C#Cc2cc(C(=O)N3CCN(c4ccc(C(=O)N(C)CC56CC7CC(CC(C7)C5)C6)nn4)CC3)cc(C(F)(F)F)c2)c1 [Compound B3A020-01, N-(1-Adamantylmethyl)-6-[4-[3-[2-(5-ethoxypyridin-3-yl)ethynyl]-5-(trifluoromethyl)benzoyl]piperazin-1-yl]-N-methylpyridazine-3-carboxamide] |  |  |  |  |  | ASMS ratio (%) n = 1 [2, 3]: 7.5%; ASMS ratio (%) n = 2 [2, 4]: −3.2%
11 | CCOc1cncc(-c2ccc(C(=O)N3CCN(c4ccc(C(=O)N(CC)CC)nn4)CC3)cc2F)c1 [Compound B4J006-01, 6-[4-[4-(5-Ethoxypyridin-3-yl)-3-fluorobenzoyl]piperazin-1-yl]-N,N-diethylpyridazine-3-carboxamide] |  |  |  |  |  | ASMS ratio (%) n = 1 [2, 5]: 0.0%; ASMS ratio (%) n = 2 [2, 6]: 0.0%
12 | CCOc1cccc(-c2cc(OC)c(CN3CCN(c4ccc(C(=O)N(CC)CC)cc4)CC3)c(OC)c2)c1 [Compound B4J059-01, 4-[4-[[4-(3-Ethoxyphenyl)-2,6-dimethoxyphenyl]methyl]piperazin-1-yl]-N,N-diethylbenzamide] |  |  |  |  |  | ASMS ratio (%) n = 1 [2, 5]: −0.1%; ASMS ratio (%) n = 2 [2, 6]: −6.0%
13 | CCOc1cncc(-c2cc(OC)c(CN3CCN(c4ccc(C(=O)N(CC)CC)cc4)CC3)c(OC)c2)c1 [Compound B4J060-01, 4-[4-[[4-(5-Ethoxypyridin-3-yl)-2,6-dimethoxyphenyl]methyl]piperazin-1-yl]-N,N-diethylbenzamide] |  |  |  |  |  | ASMS ratio (%) n = 1 [2, 5]: 0.0%; ASMS ratio (%) n = 2 [2, 6]: 0.0%
14 | CCOc1cccc(-c2ccc(CN3CCN(c4ccc(C(=O)N(CC)CC)nn4)CC3)cc2F)c1 [Compound B4J077-01, 6-[4-[[4-(3-Ethoxyphenyl)-3-fluorophenyl]methyl]piperazin-1-yl]-N,N-diethylpyridazine-3-carboxamide] |  |  |  |  |  | ASMS ratio (%) n = 2 [2, 6]: 5.5%
